Converted amounts (≈) assume the structure as drawn.
Key:
[1] = tested on: more than fifty resistant contemporary clinical isolates of Pseudomonas aeruginosa; experiment: MIC90 against panel of resistant clinical isolates of Pseudomonas aeruginosa; format: cell-based
Source text: To assess this, a panel of more than fifty resistant contemporary clinical isolates of Pseudomonas aeruginosa were obtained from multiple sources including JMI Laboratories (North Liberty, Iowa), Pfizer (Groton, Conn.), Micromyx (Kalamazoo, Mich.), Dr. J. Chow (Wayne State University). Strains were characterized for resistance to a wide variety of classes of antibiotics including aminoglycosides, β-lactams and fluoroquinolones. […] This reflects the difficulty in treating clinical Pseudomonas aeruginosa infections. […] Using this stringent panel, we tested a subset of compounds of the invention (Table 4).

[2] = tested on: Klebsiella pneumoniae KR3 (clinical isolate possessing high-level aminoglycoside resistance); experiment: MIC against Klebsiella pneumoniae clinical isolate KR3; format: cell-based; details: Klebsiella pneumonia KR3; in µg/mL
Source text: Klebsiella pneumoniae (Kpn) and Escherichia coli (Eco) are gram-negative (like Pae), enteric pathogens with increasing clinical relevance. Many clinical isolates of Kpn and Eco harbor extended-spectrum beta-lactamases and are no longer sensitive to most beta-lactam antibiotics. We acquired clinical isolates of Klebsiella pneumoniae and Escherichia coli (Micromyx LLC, Kalamazoo, Mich.) and used this panel to test compounds for anti-enteric activity.

[3] = tested on: P. aeruginosa 6294 MLP-3; experiment: Rat neutropenic thigh model; format: in vivo
Protocol: The compound identified as SXP 2523 was selected for further testing in vivo. Twenty male Sprague Dawley rats were pre-treated with cyclophosphamide to render them neutropenic on day −4 and day −1 with 100 mg/kg and 75 mg/kg respectively. Rats were infected with P. aeruginosa 6294 MLP-3, via injection into the right thigh muscle of 0.1 mL per rat. Two hours post infection rats were treated intravenously with either SXP-2523 or amikacin in a total dose of 10 or 60 mg/kg, respectively. The test article and control agent were delivered at 2, 4, and 6 hours post infection. Five rats were treated with each drug concentration. One group of five rats was euthanized at initiation of treatment and thigh CFUs were processed (T=Rx). Twenty-four hours post infection rats were euthanized by CO2 inhalation. The right thigh muscles of the rats were aseptically removed, weighed, homogenized, serially diluted, and plated on MacConkey medium. The plates were incubated overnight at 37° C. in 5% CO2. CFU per gram of thigh was calculated by enumerating the plated colonies then adjusting for serial dilutions and the weight of the thigh. The following table 7 summarizes the results Table 6: […]

[4] = Log CFU/thigh, total dose 10 mg/kg SXP-2523 or 60 mg/kg amikacin iv

SMILES: NCCCNCC1OC(OC2C(NC(=O)C(O)CCN)CC(N)C(OC3OC(CN)C(O)CC3N)C2F)C(O)C(N)C1O (stereo not drawn) [SXP 2523]
- MIC90 Pseudomonas aeruginosa [1]: 4 µg/mL (≈ 6.38 µM)
- MIC KR3 [2]: 1
- Change from 24 hr. control [3, 4]: −0.71
- Change from T = Rx controls [3, 4]: 2.37
- Log CFU/thigh ([3]; neutropenic male Sprague Dawley rats, iv at 2, 4, 6 h post infection, total dose 10 mg/kg SXP-2523 or 60 mg/kg amikacin, 24 h post infection): 6.55 Log CFU/thigh
- efficacy against P. aeruginosa in animal model ([3]; rat neutropenic thigh model, total dose 10 mg/kg iv): effective against P. aeruginosa

Reference: patent US8586552B2, “4,6-substituted 2,5-dideoxystreptamine aminoglycoside antibiotics” (SelectX Pharmaceuticals, Inc., priority 2012, dated 2013)
